From patent US20100159030A1, “METHODS FOR DETECTING AND MODULATING THE SENSITIVITY OF TUMOR CELLS TO ANTI-MITOTIC AGENTS AND FOR MODULATING TURMORGENICITY” (NewSouth Innovations Pty Limited, priority 2007, published 2010)
Counter-ions that a name gives are not always drawn. Like-named read-outs stand apart in the source and are kept apart here.

Legend:
NSCLC H460 cells = assay: Drug-treated clonogenic assay (surviving fraction, ID50) on siRNA/shRNA-transfected cells; assay type: cell-based, Human; settings: for change in drug sensitivity (clonogenic survival): H460; for IC50: Homo sapiens, read-out: ID50 (the source's name)
Protocol: (§1) Cells were transfected for 24 h and approximately 600 cells (for Calu-6) or 150 cells (for H460) were seeded into each well of a 6-well plate and allowed to attach for 4-6 h. The cell lines used in this study were not subject to prior drug selection, and are likely to represent intrinsic drug resistance observed in lung carcinoma.
(§2) Cells were then treated with increasing concentrations of various anti-mitotic drugs. Following a 3-day incubation at 37° C., the drug-containing medium was removed and replaced with fresh complete medium. Medium was changed at 3-4 day intervals for 7 to 10 days until visible colonies formed. […] Surviving colonies were simultaneously fixed and stained with 0.5% crystal violet in methanol, rinsed with water to remove excess stain and air-dried overnight.
(§3) The colonies in each well were manually counted, and the results were presented as surviving fraction according to the formula: surviving fraction was calculated as follows: colony number/(number of cells seeded×plating efficiency), where plating efficiency is equivalent to the colony number divided by the number of cells seeded in the drug-free medium. Dose-response curves were plotted for each drug-cell line combination and inhibitory dose (ID50) values were extrapolated from this curve using GraphPad Prism program (GraphPad Software, version 4, San Diego, Calif.). ID50 was defined as the concentration of the drug required to reduce the number of colonies in drug-treated wells to 50% of that of the relevant untreated control wells. The ID50 values were the means of at least four independent experiments.
(§4) To quantitate any change in drug sensitivity, drug treated clonogenic assays were performed. Twenty-four hours after siRNA transfection, cells were harvested and plated into 6-well plates for 6 h, prior to the addition of various drugs as indicated in the figure legends. After 72 h incubation, the drug-containing media was removed and replaced with complete growth media. Medium was changed every 3 days for 7 to 10 days until visible colonies formed. Colonies were simultaneously fixed and stained with 0.5% crystal violet in methanol, and manually counted. Individual stained colonies in each well were counted and the surviving fraction was calculated as follows: colony number/(number of cells seeded×plating efficiency), where plating efficiency equals the colony number divided by the number of cells seeded in drug-free media.

Calu-6 cells = assay: Drug-treated clonogenic assay on siRNA-transfected cells; assay type: cell-based, Human; settings: βIII-tubulin siRNA silencing vs controls
Protocol: as §1, §2, §3, §4

CCRF-CEM Leukaemia cells = assay type: cell-based; settings: for cross-resistance of the 2ME2-resistant cells: 2ME2-resistant sublines
Description: The tubulin-binding agent 2-methoxyestradiol (2ME2) binds to β-tubulin near the colchicine-binding site, inhibits microtubule polymerization, and induces mitotic arrest. CCRF-CEM Leukaemia cells that display increasing resistance to 2ME2 were selected, and four of the highly 2ME2 resistant leukaemia sublines were chosen for detailed analysis.

[1] = βIII-tubulin siRNA silencing vs controls
[2] = NCI-H460, Table 1A, control siRNA-transfected H460 cells
[3] = NCI-H460, Table 1A, mock-transfected H460 cells
[4] = NCI-H460, Table 1A, βII siRNA-transfected H460 cells
[5] = NCI-H460, Table 1B, control siRNA-transfected H460 cells
[6] = NCI-H460, Table 1B, mock-transfected H460 cells
[7] = NCI-H460, Table 1B, βIVb siRNA-transfected H460 cells
[8] = class II β-tubulin siRNA knockdown vs controls

Compound | change in drug sensitivity (clonogenic survival) (NSCLC H460 cells; [1]) | IC50 (NSCLC H460 cells; [2]) [nM] | IC50 (NSCLC H460 cells; [3]) [nM] | IC50 (NSCLC H460 cells; [4]) [nM] | IC50 (NSCLC H460 cells; [5]) [nM] | IC50 (NSCLC H460 cells; [6]) [nM] | IC50 (NSCLC H460 cells; [7]) [nM] | change in drug sensitivity (clonogenic survival) (NSCLC H460 cells; [8]) | also measured
COc1cccc2c1C(=O)c1c(O)c3c(c(O)c1C2=O)C[C@@](O)(C(=O)CO)C[C@@H]3O[C@H]1C[C@H](N)[C@H](O)[C@H](C)O1 [doxorubicin, doxorubicin hydrochloride] | increased sensitivity |  |  |  |  |  |  |  | 
CCC1=C[C@@H]2CN(C1)Cc1c([nH]c3ccccc13)[C@@](C(=O)OC)(c1cc3c(cc1OC)N(C)[C@H]1[C@@](O)(C(=O)OC)[C@H](OC(C)=O)[C@]4(CC)C=CCN5CC[C@]31[C@@H]54)C2 [Vinorelbine, vinorelbine] | enhanced sensitivity | 5.78 | 6.34 | 4.04 | 6.52 | 6.95 | 5.43 |  | change in drug sensitivity (clonogenic survival) (Calu-6 cells): enhanced sensitivity
COc1cc([C@@H]2c3cc4c(cc3[C@@H](O[C@@H]3O[C@@H]5CO[C@@H](C)O[C@H]5[C@H](O)[C@H]3O)[C@H]3COC(=O)[C@H]23)OCO4)cc(OC)c1O [VP-16, Etoposide] | increased sensitivity |  |  |  |  |  |  |  | 
CC[C@]12C=CCN3CC[C@@]4(c5cc([C@@]6(C(=O)OC)C[C@@H]7C[C@@H](C(C)(F)F)CN(Cc8c6[nH]c6ccccc86)C7)c(OC)cc5N(C)[C@H]4[C@@](O)(C(=O)OC)[C@@H]1OC(C)=O)[C@@H]32 [Vinflunine, vinflunine] |  | 29.9 | 31 | 19 | 30.5 | 31.7 | 19.2 |  | 
COc1cc2c(cc1O)CC[C@@H]1[C@@H]2CC[C@]2(C)[C@@H](O)CC[C@@H]12 [2ME2, 2-methoxyestradiol] |  |  |  |  |  |  |  | significantly increased sensitivity | 
CC[C@]1(O)C[C@@H]2CN(CCc3c([nH]c4ccccc34)[C@@](C(=O)OC)(c3cc4c(cc3OC)N(C)[C@H]3[C@@](O)(C(=O)OC)[C@H](OC(C)=O)[C@]5(CC)C=CCN6CC[C@]43[C@@H]65)C2)C1 [Vinblastine, vinblastine] |  | 0.749 | 0.658 | 0.437 | 0.615 | 0.674 | 0.173 |  | 
C/C(=C\c1csc(C)n1)[C@@H]1C[C@@H]2O[C@]2(C)CCC[C@H](C)[C@H](O)[C@@H](C)C(=O)C(C)(C)[C@@H](O)CC(=O)O1 [epothilone B] | increased the sensitivity |  |  |  |  |  |  | no significant change in drug sensitivity | change in drug sensitivity (clonogenic survival) (NSCLC H460 cells; class IVb β-tubulin siRNA knockdown vs controls): significantly more resistant; change in drug sensitivity (clonogenic survival) (Calu-6 cells): increased the sensitivity; cross-resistance of the 2ME2-resistant cells (CCRF-CEM Leukaemia cells): hypersensitive
COc1cc2c(c(OC)c1OC)-c1ccc(OC)c(=O)cc1[C@@H](NC(C)=O)CC2 [colchicine] |  |  |  |  |  |  |  | significantly increased sensitivity | cross-resistance of the 2ME2-resistant cells (CCRF-CEM Leukaemia cells): not cross resistant; cross-resistance (CCRF-CEM Leukaemia cells; lowest resistant subline CEM/2ME2-3.6R only): cross-resistance
